One experiment has as its target T1, recombinant human mPGES-1 (Homo sapiens, UniProt O14684).
T1 construct: made in house; host or cells: Rosetta E. coli (microsomal/membrane fraction)
T1 sequence (O14684 1-152): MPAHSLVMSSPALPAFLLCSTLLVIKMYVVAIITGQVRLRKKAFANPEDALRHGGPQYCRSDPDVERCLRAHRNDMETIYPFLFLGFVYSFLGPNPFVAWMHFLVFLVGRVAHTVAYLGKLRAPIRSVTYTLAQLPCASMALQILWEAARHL
As to the kind of experiment: mPGES-1 inhibition test (microsomes, PGH2 substrate, HTRF detection of PGE2). Conditions: inhibition of mPGES-1 at 1 μM (marked in cell). In kind it is biochemical. Summed up:
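First, inhibitor is incubated with microsomal enzyme from Rosetta E. coli in KPi pH 7.4 containing 2.5 mM GSH for 25 minutes at room temperature. Next, PGH2 is added and stopped after one minute with FeCl2 stop solution. Finally, diluted samples undergo HTRF PGE2 quantification.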
(TR-FRET usually uses a lanthanide donor and a delayed reading to cut background.)
In general, inhibition refers to the percentage by which the read-out fell short of the control. Turning to `COc1cc2[nH]c(Nc3c(Cl)ccc(C)c3F)nc2cc1C(=O)NC1CCCCC1` [Example 628, 2-(6-Chloro-2-fluoro-3-methyl-phenylamino)-6-methoxy-N-cyclohexyl-1H-benzimidazole-5-carboxamide], the inhibition at 1 µM came to 98%. As for `COc1cc2c(cc1C(=O)NC1CCC(C)(C)CC1)nc(Nc1c(Cl)ccc(C)c1F)n2C` [Example 650, 2-(6-Chloro-2-fluoro-3-methyl-phenylamino)-6-methoxy-N-(4,4-dimethyl-cyclohex-1-yl)-1-methyl-1H-benzimidazole-5-carboxamide], the inhibition at 1 µM came out at 100%.

For the molecule `O=C(Nc1ccc(F)c(Cl)c1)c1ccc2[nH]c(Nc3c(Cl)cccc3Cl)nc2c1` [Example 71, 2-(2,6-Dichloro-phenylamino)-1H-benzimidazole-5-carboxylic acid (3-chloro-4-fluoro-phenyl)-amide], the inhibition at 1 µM was 95%.

The experiment is the same for the next values; noted with them: inhibition of mPGES-1 at 10 μM.
`COc1cc2c(cc1C(=O)NCc1ncccc1C)nc(Nc1c(Cl)cccc1Cl)n2C` [Example 465, 2-(2,6-Dichlorophenylamino)-6-methoxy-1-methyl-N-((3-methylpyridin-2-yl)methyl)-1H-benzimidazole-5-carboxamide]: the inhibition at 10 µM worked out at 100%. As to `Cc1cccc(NC(=O)c2ccc3c(c2)nc(Nc2c(Cl)cccc2Cl)n3C)n1` [compound 328], the inhibition at 10 µM was determined as 95%. On the same count and under the same terms, for `O=C(Nc1cc(Cl)ccn1)c1ccc2c(c1)nc(Nc1c(Cl)cccc1Cl)n2CC1CNC1` [Example 209, 2-(2,6-Dichloro-phenylamino)-(1-azetidin-3-ylmethyl)-1H-benzimidazole-5-carboxylic acid (4-chloro-pyridin-2-yl)-amide (trifluoroacetate)] the value was 100%; for `Cn1c(Nc2c(Cl)cccc2Cl)nc2cc(C(=O)NC3(C)CCCCC3)c(F)cc21` [Example 164, 2-(2,6-Dichloro-phenylamino)-6-fluoro-1-methyl-1H-benzimidazole-5-carboxylic acid (1-methyl-cyclohexyl)-amide], 100%; for `O=C(N[C@H]1CC[C@H](C(F)(F)F)CC1)c1ccc2[nH]c(Nc3c(Cl)cccc3Cl)nc2c1` [Example 161, 2-(2,6-Dichloro-phenylamino)-1H-benzimidazole-5-carboxylic acid (trans-4-trifluoromethyl-cyclohexyl)-amide], 98%. Same read-out and setting: under `Cn1c(Nc2c(Cl)cccc2Cl)nc2cc(C(=O)NCC3CCCOC3)ccc21` (centres unmarked) [Example 251, 2-(2,6-Dichloro-phenylamino)-1-methyl-1H-benzimidazole-5-carboxylic acid (tetrahydro-pyran-3-ylmethyl)-amide] stands 71%; under `Cn1c(Nc2c(Cl)cccc2Cl)nc2cc(C(=O)NC3CCN(C4CC4)CC3)c(F)cc21` [Example 561, N-(1-Cyclopropylpiperidin-4-yl)-2-(2,6-dichlorophenylamino)-6-fluoro-1-methyl-1H-benzimidazole-5-carboxamide], 77%. Still for that read-out and setting: for `COc1cccnc1CNC(=O)c1cc2nc(Nc3c(Cl)cccc3Cl)n(C)c2cc1F` [Example 529, 2-(2,6-Dichlorophenylamino)-6-fluoro-N-((3-methoxypyridin-2-yl)methyl)-1-methyl-1H-benzimidazole-5-carboxamide] the value was 93%; for `CC(C)[C@H]1CC[C@H](NC(=O)c2cc3nc(Nc4c(F)cccc4Cl)n(C)c3cc2F)CC1` [Example 368], 100%; for `Cn1c(Nc2c(F)cccc2F)nc2cc(C(=O)NC3CCC(C)(C)CC3)ccc21` [Example 172, 2-(2,6-Difluoro-phenylamino)-1-methyl-1H-benzimidazole-5-carboxylic acid (4,4-dimethyl-cyclohexyl)-amide], 97%. With `O=C(NC1CCc2ccccc2C1)c1cc2[nH]c(Nc3c(Cl)cccc3Cl)nc2cc1F` (centres unmarked) [Example 150, 2-(2,6-Dichloro-phenylamino)-6-fluoro-3H-benzimidazole-5-carboxylic acid (1,2,3,4-tetrahydro-naphthalen-2-yl)-amide], the inhibition at 10 µM is 100%. On the same count and under the same terms, under `O=C(Nc1cccc(Cl)c1)c1cc2[nH]c(Nc3c(Cl)cccc3Cl)nc2cc1F` [Example 143, 2-(2,6-Dichloro-phenylamino)-6-fluoro-3H-benzimidazole-5-carboxylic acid (3-chloro-phenyl)-amide] stands 100%. The same measure, in the same setting: for `Cc1cc(C)nc(NC(=O)c2ccc3[nH]c(Nc4ccccc4C(F)(F)F)nc3c2)c1` [Example 118, 2-(2-Trifluoromethyl-phenylamino)-1H-benzimidazole-5-carboxylic acid (4,6-dimethyl-pyridin-2-yl)-amide] the value was 80%. Regarding `COc1cc2c(cc1C(=O)Nc1ccc(Br)cc1)nc(Nc1c(Cl)cccc1Cl)n2C` [Example 359, 2-(2,6-Dichlorophenylamino)-6-methoxy-1-methyl-N-(4-bromo-phenyl)-1H-benzimidazole-5-carboxamide], the inhibition at 10 µM worked out at 100%. Still for that read-out and setting: for `Cn1c(Nc2c(Cl)cccc2Cl)nc2cc(C(=O)NC3CCCCC3)cc(Br)c21` [Example 326, 7-Bromo-2-(2,6-dichloro-phenylamino)-1-methyl-1H-benzimidazole-5-carboxylic acid cyclohexylamide] the value was 96%; for `COc1cc2c(cc1C(=O)NC1CCC(C)(C)CC1)nc(Nc1c(Cl)ccc(Cl)c1F)n2C` [Example 621, 2-(3,6-Dichloro-2-fluoro-phenylamino)-6-methoxy-N-(4,4-dimethyl-cyclohex-1-yl)-1-methyl-1H-benzimidazole-5-carboxamide], 99%; for `CC(C)(C)[C@H]1CC[C@H](NC(=O)c2cc3nc(Nc4c(F)cccc4Cl)[nH]c3cc2F)CC1` [Example 357, N-((1r,4r)-4-tert.-Butylcyclohexyl)-2-(2-chloro-6-fluorophenylamino)-6-fluoro-1H-benzimidazole-5-carboxamide], 100%.

`Cn1c(Nc2cc(Cl)ccc2Cl)nc2cc(C(=O)Nc3ccc(Br)cc3)ccc21` [Example 380, N-(4-Bromophenyl)-2-(2,5-dichlorophenylamino)-1-methyl-1H-benzimidazole-5-carboxamide]: the inhibition at 10 µM amounted to 100%. For the molecule `Cc1cc(C)c(Nc2nc3cc(C(=O)Nc4ccc(Br)cc4)ccc3n2C)c(Cl)c1` [Example 489, N-(4-Bromophenyl)-2-(2-chloro-4,6-dimethylphenylamino)-1-methyl-1H-benzimidazole-5-carboxamide], the inhibition at 10 µM amounted to 98%.

Turning to `O=C(NC1CCC(F)(F)CC1)c1ccc2nc(Nc3c(Cl)cccc3Cl)[nH]c2c1` [Example 147, 2-(2,6-Dichloro-phenylamino)-3H-benzimidazole-5-carboxylic acid (4,4-difluoro-cyclohexyl)-amide], the inhibition at 10 µM is 94%. On the same count and under the same terms, under `Cn1c(Nc2c(Cl)cccc2Cl)nc2cc(C(=O)Nc3cc(Cl)ccn3)cc(Br)c21` [Example 492, 7-Bromo-N-(4-chloropyridin-2-yl)-2-(2,6-dichlorophenylamino)-1-methyl-1H-benzimidazole-5-carboxamide] stands 98%; under `CCOc1cc2c(cc1C(=O)NC1CCC(C(F)(F)F)CC1)nc(Nc1c(Cl)ccc(Cl)c1F)n2C` (stereo not drawn) [Example 605, 2-(3,6-Dichloro-2-fluoro-phenylamino)-6-ethoxy-N-(4-trans-trifluoromethyl-cyclohex-1-yl)-1-methyl-1H-benzimidazole-5-carboxamide], 93%. Same read-out and setting: for `O=C(Nc1ccc(Br)cc1)c1ccc2[nH]c(Nc3c(F)cccc3Cl)nc2c1` [compound 334] the value was 100%; for `CO[C@H]1CC[C@H](NC(=O)c2ccc3c(c2)nc(Nc2c(Cl)cccc2Cl)n3C)CC1` [Example 240, 2-(2,6-Dichloro-phenylamino)-1-methyl-1H-benzimidazole-5-carboxylic acid (trans-4-methoxy-cyclohexyl)-amide], 80%; for `Cn1c(Nc2c(Cl)cccc2Cl)nc2cc(C(=O)NC3CCC(C(F)(F)F)CC3)ccc21` (centres unmarked) [Example 256, 2-(2,6-Dichloro-phenylamino)-1-methyl-1H-benzimidazole-5-carboxylic acid (4-trifluoromethyl-cyclohexyl)-amide], 100%. `COc1cc2c(cc1C(=O)NC1CCCCC1)nc(Nc1c(Cl)cccc1Cl)n2C` [Example 135, 2-(2,6-Dichloro-phenylamino)-6-methoxy-1-methyl-1H-benzimidazole-5-carboxylic acid cyclohexylamide]: the inhibition at 10 µM was determined as 100%. `O=C(Nc1ccc(Br)cc1)c1cc2nc(Nc3c(Cl)cc(F)cc3Cl)[nH]c2cc1OCC(F)(F)F` [Example 582, 2-(2,6-Dichloro-4-fluoro-phenylamino)-N-(4-bromo-phenyl)-6-(2,2,2-trifluorethoxy)-1H-benzimidazole-5-carboxamide]: the inhibition at 10 µM came to 100%. Consider `CC(C)(C)CNC(=O)c1ccc2[nH]c(Nc3c(Cl)cccc3Cl)nc2c1` [Example 140, 2-(2,6-Dichloro-phenylamino)-1H-benzimidazole-5-carboxylic acid (2,2-dimethyl-propyl)-amide], for which the inhibition at 10 µM amounted to 80%. With `CC1CC(NC(=O)c2ccc3c(c2)nc(Nc2c(Cl)cccc2Cl)n3C)CC(C)(C)C1` (centres unmarked) [Example 241, 2-(2,6-Dichloro-phenylamino)-1-methyl-1H-benzimidazole-5-carboxylic acid (3,3,5-trimethyl-cyclohexyl)-amide], the inhibition at 10 µM came to 100%.

For the origin of these results see US8916599B2, “1H-benz imidazole-5-carboxamides as anti-inflammatory agents” (Orexo AB, priority 2008, dated 2014).
